Assay results from PubChem BioAssay AID248 (DTP/NCI, 2004).
Where “and” joins values, the source holds several entries; their conditions need not be identical. Identical values can stand only once. Toxic doses and inconclusive results are not listed. Rule as the data show it: active = T/C of 150% or more; inactive = T/C below 125%.

Test system: L1210 leukemia ip in BDF1 mice, survival T/C
Assay: NCI In Vivo Anticancer Drug Screen. Data for tumor model L1210 Leukemia (intraperitoneal) in B6D2F1 (BDF1) mice
Conditions: endpoint: mean survival time, higher = longer survival
Method in brief: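 Transplantable tumor model; survival measured in treated vs vehicle control mice. Value = treated/control.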

[1] = dose: 100.0 mg/kg/injection, schedule: Q04DX003 (ip), vehicle: Klucel (hydroxypropylcellulose) (HPC)
[2] = dose: 200.0 mg/kg/injection, schedule: Q04DX003 (ip), vehicle: Klucel (hydroxypropylcellulose) (HPC)
[3] = dose: 400.0 mg/kg/injection, schedule: Q04DX003 (ip), vehicle: Klucel (hydroxypropylcellulose) (HPC)
[4] = dose: 100.0 mg/kg/injection, schedule: Q01DX009 (ip), vehicle: Klucel (hydroxypropylcellulose) (HPC)
[5] = dose: 200.0 mg/kg/injection, schedule: Q01DX009 (ip), vehicle: Klucel (hydroxypropylcellulose) (HPC)
[6] = dose: 400.0 mg/kg/injection, schedule: Q01DX009 (ip), vehicle: Klucel (hydroxypropylcellulose) (HPC)
[7] = dose: 160.0 mg/kg/injection, schedule: Q04DX002 (ip), vehicle: saline with Tween-80
[8] = dose: 400.0 mg/kg/injection, schedule: Q04DX002 (ip), vehicle: saline with Tween-80
[9] = dose: 100.0 mg/kg/injection, schedule: Q01DX009 (ip), vehicle: saline
[10] = dose: 100.0 mg/kg/injection, schedule: Q04DX003 (ip), vehicle: saline
[11] = dose: 200.0 mg/kg/injection, schedule: Q01DX009 (ip), vehicle: saline
[12] = dose: 400.0 mg/kg/injection, schedule: Q01DX009 (ip), vehicle: saline
[13] = dose: 100.0 mg/kg/injection, schedule: Q04DX002 (ip), vehicle: Klucel (hydroxypropylcellulose) (HPC)
[14] = dose: 200.0 mg/kg/injection, schedule: Q04DX002 (ip), vehicle: Klucel (hydroxypropylcellulose) (HPC)
[15] = dose: 400.0 mg/kg/injection, schedule: Q04DX002 (ip), vehicle: Klucel (hydroxypropylcellulose) (HPC)

Measured: T/C

NCC1OC(n2cnc3c(N)ncnc32)CC1O (stereo unspecified)
inactive: dose: 50.0 mg/kg/injection, schedule: Q01DX001 (ip), vehicle: carboxymethylcellulose (CMC) 107 % of control | dose: 100.0 mg/kg/injection, schedule: Q01DX001 (ip), vehicle: carboxymethylcellulose (CMC) 107 % of control | dose: 200.0 mg/kg/injection, schedule: Q01DX001 (ip), vehicle: carboxymethylcellulose (CMC) 109 % of control | dose: 400.0 mg/kg/injection, schedule: Q01DX001 (ip), vehicle: carboxymethylcellulose (CMC) 104 % of control

COC(=O)C(C)NC(=O)CNC(=O)CNC(=O)OCc1ccccc1 (stereo unspecified)
inactive: [1] 97 % of control | [2] 100 % of control | [3] 95 % of control

CN(Cc1cnc2cc(N)nc(N)c2n1)c1ccc(C(=O)O)cc1
inactive: dose: 25.0 mg/kg/injection, schedule: Q01DX009 (ip), vehicle: other 108 % of control | dose: 50.0 mg/kg/injection, schedule: Q01DX009 (ip), vehicle: other 106 % of control | dose: 75.0 mg/kg/injection, schedule: Q01DX001 (ip), vehicle: other 98 % of control | dose: 100.0 mg/kg/injection, schedule: Q01DX009 (ip), vehicle: other 101 % of control | dose: 150.0 mg/kg/injection, schedule: Q01DX001 (ip), vehicle: other 102 % of control | dose: 300.0 mg/kg/injection, schedule: Q01DX001 (ip), vehicle: other 105 % of control

CCOC(=O)c1cnc(SC)nc1Nc1cccc(Br)c1
inactive: [4] 91 % of control | [1] 97 % of control | [5] 96 % of control | [2] 92 % of control | [6] 93 % of control | [3] 90 % of control

COC(=O)/C=C(\C)Oc1c(Cl)c(Cl)c(Cl)c(Cl)c1Cl
inactive: dose: 100.0 mg/kg/injection, schedule: Q01DX009 (ip), vehicle: saline sonified 96 % of control | dose: 200.0 mg/kg/injection, schedule: Q01DX009 (ip), vehicle: saline sonified 100 % of control | dose: 400.0 mg/kg/injection, schedule: Q01DX009 (ip), vehicle: saline sonified 100 % of control

C/C(=N/Nc1c(F)c(F)c(-c2c(F)c(F)c(N/N=C(\C)c3ccccc3)c(F)c2F)c(F)c1F)c1ccccc1
inactive: dose: 25.6 mg/kg/injection, schedule: Q04DX002 (ip), vehicle: saline with Tween-80 95 % of control | dose: 64.0 mg/kg/injection, schedule: Q04DX002 (ip), vehicle: saline with Tween-80 92 % of control | [7] 89 % of control | [8] 92 % of control

O=[N+]([O-])/C(Br)=C\c1ccc([N+](=O)[O-])cc1
inactive: dose: 75.0 mg/kg/injection, schedule: Q01DX001 (ip), vehicle: carboxymethylcellulose (CMC) 98 % of control | dose: 150.0 mg/kg/injection, schedule: Q01DX001 (ip), vehicle: carboxymethylcellulose (CMC) 105 % of control

CCOC(=O)n1ncnc1N
inactive: [9] 94 % of control | [10] 91 % of control | [11] 98 % of control | dose: 200.0 mg/kg/injection, schedule: Q04DX003 (ip), vehicle: saline 98 % of control | [12] 104 % of control | dose: 400.0 mg/kg/injection, schedule: Q04DX003 (ip), vehicle: saline 95 % of control

CCOC(=O)COc1c(C(C)(C)C)cc([N+](=O)[O-])c(C)c1[N+](=O)[O-]
inactive: [13] 100 % of control | [14] 91 % of control | [15] 106 % of control

CCCCCCCCCCCCCCCCCC(=O)[O][Sn]([CH2]CCC)([CH2]CCC)[O]C(=O)CCCCCCCCCCCCCCCCC
inactive: dose: 6.25 mg/kg/injection, schedule: Q04DX003 (ip), vehicle: other 100 % of control | dose: 12.5 mg/kg/injection, schedule: Q04DX003 (ip), vehicle: other 114 % of control | dose: 25.0 mg/kg/injection, schedule: Q04DX003 (ip), vehicle: other 101 % of control | dose: 50.0 mg/kg/injection, schedule: Q04DX003 (ip), vehicle: other 101 % of control

OC1C2CCN(CC2)C1CN1CC=C(c2ccccc2)CC1 (stereo unspecified)
inactive: dose: 25.0 mg/kg/injection, schedule: Q04DX003 (ip), vehicle: saline 104 % of control | dose: 50.0 mg/kg/injection, schedule: Q04DX003 (ip), vehicle: saline 101 % of control | [10] 98 % of control

c1ccc([Si]2(c3ccccc3)[Si](c3ccccc3)(c3ccccc3)[Si](c3ccccc3)(c3ccccc3)[Si](c3ccccc3)(c3ccccc3)[Si](c3ccccc3)(c3ccccc3)[Si]2(c2ccccc2)c2ccccc2)cc1
inactive: dose: 100.0 mg/kg/injection, schedule: Q04DX003 (ip), vehicle: saline with Tween-80 102 % of control | [7] 86 % of control | dose: 200.0 mg/kg/injection, schedule: Q04DX003 (ip), vehicle: saline with Tween-80 94 % of control | [8] 86 % of control | dose: 400.0 mg/kg/injection, schedule: Q04DX003 (ip), vehicle: saline with Tween-80 96 % of control

COc1cccc(NC(=S)/C(=C(/[O-])c2ccc([N+](=O)[O-])cc2)[n+]2ccccc2)c1
inactive: [4] 97 % of control | [5] 98 % of control | [6] 94 % of control

O=C(O)c1ccc(CC2CCCC2)cc1
inactive: dose: 100.0 mg/kg/injection, schedule: Q01DX001 (ip), vehicle: Klucel (hydroxypropylcellulose) (HPC) 96 % of control | [1] 93 % of control | dose: 200.0 mg/kg/injection, schedule: Q01DX001 (ip), vehicle: Klucel (hydroxypropylcellulose) (HPC) 103 % of control | [2] 93 % of control | dose: 400.0 mg/kg/injection, schedule: Q01DX001 (ip), vehicle: Klucel (hydroxypropylcellulose) (HPC) 97 % of control | [3] 98 % of control

N=C(N=c1cc(C(=O)NC(=N)NC(=N)Nc2ccccc2)n(C(=N)NC(=N)Nc2ccccc2)c(C(=O)NC(=N)NC(=N)Nc2ccccc2)c1)NC(=N)Nc1ccccc1
inactive: [9] 105 % of control | [11] 94 % of control | [12] 87 % of control

CCCCNC(=O)Nc1cccc(C(F)(F)F)c1
inactive: dose: 50.0 mg/kg/injection, schedule: Q01DX001 (sc), vehicle: carboxymethylcellulose (CMC) 106 % of control | dose: 100.0 mg/kg/injection, schedule: Q01DX001 (sc), vehicle: carboxymethylcellulose (CMC) 104 % of control | dose: 200.0 mg/kg/injection, schedule: Q01DX001 (sc), vehicle: carboxymethylcellulose (CMC) 104 % of control | dose: 400.0 mg/kg/injection, schedule: Q01DX001 (sc), vehicle: carboxymethylcellulose (CMC) 101 % of control

CONC(N)=O
inactive: dose: 100.0 mg/kg/injection, schedule: Q01DX Z (ip), vehicle: carboxymethylcellulose (CMC) 100 % of control | dose: 200.0 mg/kg/injection, schedule: Q01DX Z (ip), vehicle: carboxymethylcellulose (CMC) 98 % of control | dose: 350.0 mg/kg/injection, schedule: Q01DX Z (ip), vehicle: carboxymethylcellulose (CMC) 100 % of control and 101 % of control | dose: 500.0 mg/kg/injection, schedule: Q01DX Z (ip), vehicle: carboxymethylcellulose (CMC) 98 % of control | dose: 750.0 mg/kg/injection, schedule: Q01DX Z (ip), vehicle: carboxymethylcellulose (CMC) 98 % of control

O=C1O[C@@H]2[C@@H](I)[C@@H]3C[C@@H]2[C@@H]1C3
inactive: dose: 5.0 mg/kg/injection, schedule: Q01DX001 (ip), vehicle: carboxymethylcellulose (CMC) 91 % of control | dose: 10.0 mg/kg/injection, schedule: Q01DX001 (ip), vehicle: carboxymethylcellulose (CMC) 93 % of control | dose: 20.0 mg/kg/injection, schedule: Q01DX001 (ip), vehicle: carboxymethylcellulose (CMC) 94 % of control | dose: 40.0 mg/kg/injection, schedule: Q01DX001 (ip), vehicle: carboxymethylcellulose (CMC) 91 % of control | dose: 80.0 mg/kg/injection, schedule: Q01DX001 (ip), vehicle: carboxymethylcellulose (CMC) 93 % of control

CC(=O)OC1COC(n2cnc3c(N)ncnc32)C(OC(C)=O)C1OC(C)=O (stereo unspecified)
inactive: dose: 50.0 mg/kg/injection, schedule: Q01DX001 (ip), vehicle: saline 100 % of control | dose: 100.0 mg/kg/injection, schedule: Q01DX001 (ip), vehicle: saline 97 % of control | dose: 200.0 mg/kg/injection, schedule: Q01DX001 (ip), vehicle: saline 100 % of control

C(=C\CSc1ccccc1)/CSc1ccccc1
inactive: [13] 97 % of control | [14] 94 % of control | [15] 97 % of control
